According to patent publication US10517934B2, “Compositions and methods for the treatment of photoaging and other conditions” (PRO TRANSIT NANOTHERAPY LLC, priority 2014, dated 2019):

Tested on: UV-induced free radicals in porcine ear skin
Assay: Skin antioxidative protection/retention (SAP/SAR) by ESR spectroscopy in porcine ear skin exposed to UV
Parameters: species or system pig
Description: Freshly excised porcine ear skin is close to human skin that is routinely used as a model for testing the protective efficacy of several topically applied antioxidants against UV-induced free radicals. Porcine skin biopsies obtained from local slaughterhouse (pig skin, 6 month old animals, external lobe of the ears) were used for the experiments. The skin was washed, the subdermal fat was removed and cut into 2×2 cm pieces before the application of test samples on the epidermal layer.
The skin has an intrinsic antioxidant protection potential (enzymatic and non-enzymatic), which can be measured by electron spin resonance (ESR) spectroscopy. If an active test sample applied to the stratum corneum penetrates to deep layers of skin, it increases the skin antioxidative protection (SAP). Labeling skin epidermis and dermis (by soaking skin on dermis side) with a semi-stable test radical (TEMPO, 2,2,6,6-tetramethyl piperidine-N-oxyl) that reacts with free radicals produces signal intensities detected by ESR spectroscopy, which can be quantitatively expressed as percent SAP values to determine the antioxidant activity in skin (epidermis and dermis).
Using SAP values from ESR spectroscopy, skin antioxidative retention (SAR) potential of a test cosmetic formulation can be effectively measured using appropriate radical probes. SAR value indicates the antioxidative activity of the skin after free radical damage (UV radiation), which evaluates the protective effectiveness of topically applied antioxidants/free radical scavengers. In addition to the assessment of antioxidative activity in skin, the SAR value also validates the penetration of the topically applied antioxidants. The SAR values are expressed in percent and are calculated using the following formula: SAR [%]=(SAPUV,Product−SAPUV,Placebo)/(SAPPlacebo−SAPUV,Placebo).
The study was conducted blinded and the operator was supplied with formulations that were coded. Pro-NP™, control NPs, or placebo (mixed at 2% w/w in anhydrous lotion) were applied on the skin (2 mg/cm^2) and allowed to penetrate for definite times (10 minutes, 30 minutes, 4 hours or 18 hours). The skin was then exposed to UV radiation (0.6 MED; Minimal Erythema Dose) to induce free radicals that lead to a decrease in the SAP values up to 59% of the initial value (without UV treatment) of the untreated skin. Irradiation source: UV solar simulator 300 W Oriel (Newport). The irradiances as integrated value over the spectral ranges were E (UVB=280-320)=23.5 W/m^2 and E (UVA=320-400 nm)=180 W/m^2. The maintenance of the SAP values after UV exposure due to the test product is expressed by the SAR values.

Tocopherol [1% Tocopherol] was tested, and the “SAR (%) 10 mins” value (2% w/w in anhydrous lotion, 2 mg/cm^2, 10 mins penetration, UV 0.6 MED) was 20%, the “SAR (%) 30 mins” value (30 mins penetration, UV 0.6 MED) was 6% and the “SAR (%) 4 hrs” value (4 hrs penetration, UV 0.6 MED) was 0%. The “SAR (%) 18 hrs” value (18 hrs penetration, UV 0.6 MED) was 0%, the “protection after UV” value (after 10 minutes application) was 24% and the “protection after UV” value (after 30 minutes) was “very weak protection”. For the same substance, the “increase of the SAP values before UV irradiation with respect to untreated skin” value (without UV irradiation) was 29%.
